pIC50: −log10 of the molar value. Activity calls are given as the source filed them. The rule behind the calls is not given here.

The text below walks through data of PubChem BioAssay AID1053171 (The Scripps Research Institute Molecular Screening Center, 2014).

The target of this test is HIV-1 integrase (multimerization). As to the kind of experiment: compounds increasing HIV-1 IN multimer formation – biochemical, TR-FRET, counter-screen for LEDGF/p75 integration inhibitor project, dose response (AID 1053171). On the technique in general: Time-resolved FRET reads energy transfer from a long-lived donor to a nearby acceptor.
As a reminder, the pIC50 is the negative decadic logarithm of the IC50, by convention in mol/L. Take `O=C1/C(=C\c2ccc(O)c(O)c2)C(c2ccccc2)=NN1c1ccccc1`: the pIC50 was 5.06.
On the same count and under the same terms, the same measure for `O=C1C=C(O)c2[nH]c(=O)ccc2C1=O`: 5.13.
Consider `CN(C)c1ccc(O)c2c1CC1CC3[C@@H](N(C)C)C(=O)C(C(N)=O)=C(O)[C@]3(O)C(=O)C1=C2O` (some centres undefined), for which the pIC50 is 5.60.
Usually IC50 stands for the point on the concentration scale where inhibition reaches its midpoint. `O=[N+]([O-])c1ccccc1NC(=S)N/N=C/c1ccc(O)c(O)c1`: the IC50 result is “inactive”.
Take `O=c1cc2c(=O)oc3cc(O)c(O)oc3c2c(O)c1O`: the pIC50 is 6.45.
On to `CN(C)C1C(=O)C(C(N)=O)=C(O)C2(O)C(=O)C3=C(O)c4c(O)cccc4C(C)(O)C3C(O)C12` (centres undefined), for which the IC50 result is “inactive”.
Same read-out and setting: next, `O=C1c2cc(O)c(O)cc2OC(c2ccc(O)c(O)c2)C1O` (centres undefined): “inactive”; `C[n+]1c2cc(N)ccc2cc2ccc(N)cc21`: > 17.9 µM (inactive).
Take `O=C1C=C(O)c2c(O)cc(O)c(O)c2C1=O`: the pIC50 was 7.07.
In the case of `C=C1c2cccc(O)c2C(O)=C2C(=O)[C@]3(O)C(O)=C(C(N)=O)C(=O)[C@@H](N(C)C)[C@@H]3[C@@H](O)[C@H]12`, the pIC50 was 5.07.
The same measure, in the same setting: the same measure for `O=c1c(O)c(-c2ccc(O)c(O)c2)oc2cc(O)cc(O)c12`: 5.27.
With `Cc1c(CC(=O)N2CCN(C(=O)C3COc4ccccc4O3)CC2)c(=O)oc2c(O)c(O)ccc12` (centres undefined), the IC50 is > 53.7 µM (inactive).
Take `O=[N+]([O-])c1cc(Br)c(O)c(C=Nc2ccc(N3CCOCC3)cc2)c1`: the IC50 was > 53.8 µM (inactive).
Take `O=C1CCCC(O)=C1N=Nc1ccc(C(=O)O)cc1`: the pIC50 is 5.57.
`CN(C)[C@@H]1C(=O)C(C(N)=O)=C(O)[C@@]2(O)C(=O)C3=C(O)c4c(O)cccc4[C@@](C)(O)C3[C@H](O)C12` (some centres undefined): the IC50 result was “inactive”.
Same read-out and setting: the same measure for `COc1cc(C)cc(C(=O)O)c1C1=C(O)c2cccc(O)c2C(=O)C1=O`: “inactive”; for `O=C1C=C(Nc2ccccc2O)c2ccccc2C1=O`: “inactive”.
Consider `O=c1c(O)c(-c2ccc(O)c(O)c2)oc2cc(O)ccc12`, for which the pIC50 was 5.84.
The same measure, in the same setting: the same measure for `N/C(=N\N=C/c1ccc(-c2ccc(O)c(C(=O)O)c2)o1)N[N+](=O)[O-]`: 5.34.
With `Cc1cc(C(=O)N/N=C/c2ccc(O)c([N+](=O)[O-])c2)c(C)n1-c1ccc(F)cc1`, the IC50 entry is “inactive”.
Consider `NS(=O)(=O)c1ccc(N/N=C/c2ccc(O)c(O)c2O)c([N+](=O)[O-])c1`, for which the pIC50 is 5.47.
Take `O=C1NC(=Nc2ccc(O)cc2)S/C1=C\C=C\c1ccco1`: the IC50 result is “inactive”.
Take `CC1=NN(c2cccc(C(=O)O)c2)C(=O)/C1=C\C=C\c1ccco1`: the pIC50 is 5.85.
As for `NC(=O)c1ccc(N=Cc2c(O)n(Cc3ccco3)c(=O)[nH]c2=O)cc1`, the IC50 is > 53.7 µM (inactive).
